Results: ChEMBL document CHEMBL4387706, “Discovery of Novel Spiroindoline Derivatives as Selective Tankyrase Inhibitors” (J Med Chem, 2019)
pIC50: −log10 of the molar value. Active and inactive are the calls of the source. No cut-off for these calls is given here.

Key:
[1] = target: T1, Poly [ADP-ribose] polymerase tankyrase-2 (Homo sapiens, UniProt Q9H2K2)
T1 sequence (Q9H2K2 whole entry): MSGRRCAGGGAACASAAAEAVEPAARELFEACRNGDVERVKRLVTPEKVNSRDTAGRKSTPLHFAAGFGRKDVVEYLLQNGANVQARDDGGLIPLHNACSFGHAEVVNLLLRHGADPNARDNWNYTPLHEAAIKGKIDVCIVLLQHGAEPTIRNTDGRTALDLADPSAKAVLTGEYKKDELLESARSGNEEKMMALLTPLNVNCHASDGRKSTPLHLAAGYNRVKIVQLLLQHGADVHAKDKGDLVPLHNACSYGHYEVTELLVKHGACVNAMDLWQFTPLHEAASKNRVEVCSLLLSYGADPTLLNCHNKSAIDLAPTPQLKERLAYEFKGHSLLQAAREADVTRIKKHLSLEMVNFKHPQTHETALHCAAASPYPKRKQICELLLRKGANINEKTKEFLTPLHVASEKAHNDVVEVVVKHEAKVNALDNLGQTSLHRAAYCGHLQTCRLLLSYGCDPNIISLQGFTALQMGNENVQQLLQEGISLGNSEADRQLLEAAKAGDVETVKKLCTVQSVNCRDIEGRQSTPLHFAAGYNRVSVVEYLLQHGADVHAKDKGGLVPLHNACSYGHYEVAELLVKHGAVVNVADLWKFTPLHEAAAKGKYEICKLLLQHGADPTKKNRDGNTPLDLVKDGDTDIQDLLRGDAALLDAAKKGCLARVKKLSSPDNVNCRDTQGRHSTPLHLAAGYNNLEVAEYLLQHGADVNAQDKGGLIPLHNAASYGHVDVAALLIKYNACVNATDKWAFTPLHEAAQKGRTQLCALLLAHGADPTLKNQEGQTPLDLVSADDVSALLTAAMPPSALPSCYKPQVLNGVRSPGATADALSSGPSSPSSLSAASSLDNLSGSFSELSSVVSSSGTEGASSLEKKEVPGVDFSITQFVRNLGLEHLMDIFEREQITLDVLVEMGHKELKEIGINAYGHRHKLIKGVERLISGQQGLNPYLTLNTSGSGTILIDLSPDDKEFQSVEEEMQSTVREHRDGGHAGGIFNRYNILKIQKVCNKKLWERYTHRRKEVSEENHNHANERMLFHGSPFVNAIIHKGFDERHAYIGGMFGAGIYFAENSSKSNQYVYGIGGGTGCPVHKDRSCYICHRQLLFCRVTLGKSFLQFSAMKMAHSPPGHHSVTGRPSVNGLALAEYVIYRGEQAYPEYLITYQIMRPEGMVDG
Description: Inhibition of recombinant human N-terminal TEV cleavage site-fused/FLAG-poly his-tagged TNKS2 SAM-PARP domain (613 to 1166 residues) expressed in Escherichia coli assessed as reduction in auto-PARylation preincubated for 10 mins followed by biotinylated-NAD+ addition and measured after 45 mins by ELISA

[2] = Cmax in ICR mouse at 50 mg/kg, ip; assay type: ADME, organism-based; parameters: dose 50 mg/kg, route intraperitoneal; conditions: in vivo
[3] = tested on: RKO; assay: Antiproliferative activity against human RKO cells assessed reduction in cell viability at 0.3 uM measured after 5 days by MTT assay; assay type: functional, cell-based
[4] = AUC (infinity) in ICR mouse at 50 mg/kg, ip; assay type: ADME, organism-based; parameters: dose 50 mg/kg, route intraperitoneal, time infinity; conditions: in vivo
[5] = species: Homo sapiens; assay: Effect on hippo signaling protein in human COLO320DM cells assessed as change in CYR61 expression at 0.033 to 1 uM measured after 48 hrs by RT-PCR analysis; assay type: cell-based
[6] = target: T2, Tankyrase 1/2 (Homo sapiens) (UniProt Q9H2K2+O95271); assay: Inhibition of TNKS/TNKS2-mediated beta-catenin signaling in human COLO320DM cells assessed as down regulation of TCF7 mRNA expression at 0.033 to 1 uM measured after 48 hrs by RT-PCR analysis; assay type: cell-based
[7] = target: T2, Tankyrase 1/2 (Homo sapiens); assay: Inhibition of TNKS/TNKS2-mediated beta-catenin signaling in human COLO320DM cells assessed as down regulation of AXIN2 mRNA expression at 0.033 to 1 uM measured after 48 hrs by RT-PCR analysis; assay type: cell-based
[8] = target: 5-hydroxytryptamine receptor 2B (Homo sapiens) (UniProt P41595); assay: Displacement of [3H]LSD from full-length recombinant human 5HT2B receptor expressed in CHOK1 cells at 10 uM measured after 60 mins by scintillation counting method relative to control; assay type: cell-based
[9] = target: Adenosine receptor A2a (Homo sapiens) (UniProt P29274); assay: Displacement of [3H]CGS-21680 from full-length recombinant human A2A receptor expressed in HEK293 cells at 10 uM measured after 90 mins by scintillation counting method relative to control; assay type: cell-based
[10] = target: Beta-1 adrenergic receptor (Homo sapiens) (UniProt P08588); assay: Displacement of [125I]cyanopindolol from full-length recombinant human beta1 receptor expressed in CHOK1 cells at 10 uM measured after 120 mins by scintillation counting method relative to control; assay type: cell-based
[11] = target: Cav1.2 (voltage-dependent L-type calcium channel subunit alpha-1C) (Rattus norvegicus, UniProt P22002); assay: Displacement of [3H]nitrendipine from Cav1.2 in Wistar rat cerebral cortex at 10 uM measured after 90 mins by scintillation counting method relative to control; conditions: probe [3H]nitrendipine
[12] = target: Cannabinoid receptor 1 (Homo sapiens) (UniProt P21554); assay: Displacement of [3H]SR141716A from full-length recombinant human CB1 receptor expressed in human Chem1 cells at 10 uM measured after 60 mins by scintillation counting method relative to control; assay type: cell-based
[13] = target: D(2) dopamine receptor (Homo sapiens) (UniProt P14416); assay: Displacement of [3H]spiperone from full-length recombinant human D2S receptor expressed in CHO cells at 10 uM measured after 120 mins by scintillation counting method relative to control; assay type: cell-based
[14] = target: Glucocorticoid receptor (Homo sapiens) (UniProt P04150); assay: Displacement of [3H]dexamethasone from full-length recombinant human glucocorticoid receptor expressed in insect cells at 10 uM measured after 24 hrs by scintillation counting method relative to control
[15] = target: Muscarinic acetylcholine receptor M1 (Homo sapiens) (UniProt P11229); assay: Displacement of [3H]N-Methylscopolamine from full-length recombinant human M1 receptor expressed in CHOK1 cells at 10 uM measured after 120 mins by scintillation counting method relative to control; assay type: cell-based
[16] = target: Muscarinic acetylcholine receptor M3 (Homo sapiens) (UniProt P20309); assay: Displacement of [3H]N-Methylscopolamine from full-length recombinant human M3 receptor expressed in CHOK1 cells at 10 uM measured after 120 mins by scintillation counting method relative to control; assay type: cell-based
[17] = species: Rattus norvegicus; assay: Displacement of [3H]batrachotoxinin from Wistar rat brain sodium channel site 2 at 10 uM after 60 mins by scintillation counting analysis relative to control
[18] = target: 3',5'-cyclic-AMP phosphodiesterase 4D (Homo sapiens) (UniProt Q08499); assay: Inhibition of full-length recombinant human PDE4D2 expressed in Sf9 insect cells at 10 uM using FAM-cAMP as substrate preincubated for 15 mins followed by substrate addition and measured after 15 mins by spectrofluorimetric method relative to control
[19] = target: Vasopressin V1a receptor (Homo sapiens) (UniProt P37288); assay: Displacement of [125I]Phenylacetyl-D-Tyr(Me)-Phe-Gln-Asn-Arg-Pro-Arg-Tyr-NH2 from full-length recombinant human V1A receptor expressed in HEK293 cells at 10 uM measured after 120 mins by scintillation counting method relative to control; assay type: cell-based
Vasopressin V1a receptor (Homo sapiens), sequence (P37288 whole entry, looked up): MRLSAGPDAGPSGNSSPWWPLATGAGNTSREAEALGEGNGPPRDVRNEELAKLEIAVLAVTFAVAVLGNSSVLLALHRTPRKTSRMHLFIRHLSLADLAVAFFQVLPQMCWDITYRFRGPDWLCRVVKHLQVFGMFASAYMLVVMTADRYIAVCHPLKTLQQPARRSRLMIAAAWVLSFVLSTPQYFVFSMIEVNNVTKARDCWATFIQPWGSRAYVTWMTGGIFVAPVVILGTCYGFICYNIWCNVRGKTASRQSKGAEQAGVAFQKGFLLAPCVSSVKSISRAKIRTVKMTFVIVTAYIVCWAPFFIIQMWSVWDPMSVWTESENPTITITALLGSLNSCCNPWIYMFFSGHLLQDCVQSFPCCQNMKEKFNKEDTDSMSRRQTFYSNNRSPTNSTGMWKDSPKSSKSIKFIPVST

T2 sequence (O95271 whole entry, looked up, one chain of several): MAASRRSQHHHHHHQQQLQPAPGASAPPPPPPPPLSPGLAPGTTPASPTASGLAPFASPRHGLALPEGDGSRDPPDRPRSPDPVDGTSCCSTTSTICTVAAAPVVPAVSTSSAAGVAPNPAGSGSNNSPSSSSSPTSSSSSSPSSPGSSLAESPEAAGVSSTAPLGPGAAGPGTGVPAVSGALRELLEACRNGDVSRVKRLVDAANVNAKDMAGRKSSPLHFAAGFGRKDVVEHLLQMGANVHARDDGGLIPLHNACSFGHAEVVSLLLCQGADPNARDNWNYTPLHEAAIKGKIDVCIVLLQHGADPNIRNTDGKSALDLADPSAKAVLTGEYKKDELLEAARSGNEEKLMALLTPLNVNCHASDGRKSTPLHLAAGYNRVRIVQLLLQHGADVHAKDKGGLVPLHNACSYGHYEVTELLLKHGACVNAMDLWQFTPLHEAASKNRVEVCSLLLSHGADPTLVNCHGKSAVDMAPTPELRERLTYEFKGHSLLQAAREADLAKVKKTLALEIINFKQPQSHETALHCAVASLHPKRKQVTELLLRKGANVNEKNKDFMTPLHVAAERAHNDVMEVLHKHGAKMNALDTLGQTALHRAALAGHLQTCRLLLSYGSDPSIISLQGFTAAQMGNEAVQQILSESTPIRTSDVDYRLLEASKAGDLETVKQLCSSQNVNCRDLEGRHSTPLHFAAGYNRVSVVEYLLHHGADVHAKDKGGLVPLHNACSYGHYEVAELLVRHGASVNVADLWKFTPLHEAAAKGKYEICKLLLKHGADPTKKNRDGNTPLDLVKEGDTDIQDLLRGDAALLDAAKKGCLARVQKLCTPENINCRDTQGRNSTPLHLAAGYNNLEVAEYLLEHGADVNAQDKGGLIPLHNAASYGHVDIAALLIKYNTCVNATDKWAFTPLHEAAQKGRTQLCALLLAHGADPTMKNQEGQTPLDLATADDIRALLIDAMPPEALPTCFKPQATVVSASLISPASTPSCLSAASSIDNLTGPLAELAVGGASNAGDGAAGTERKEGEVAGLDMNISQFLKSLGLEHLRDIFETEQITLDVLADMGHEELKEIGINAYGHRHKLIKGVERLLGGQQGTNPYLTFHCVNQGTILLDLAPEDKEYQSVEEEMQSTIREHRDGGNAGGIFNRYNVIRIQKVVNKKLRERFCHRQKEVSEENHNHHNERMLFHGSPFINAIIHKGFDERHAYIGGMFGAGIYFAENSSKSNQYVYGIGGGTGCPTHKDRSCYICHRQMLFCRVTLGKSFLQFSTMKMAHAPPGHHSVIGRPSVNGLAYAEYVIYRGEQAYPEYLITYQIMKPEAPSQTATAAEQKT
Cannabinoid receptor 1 (Homo sapiens), sequence (P21554 whole entry): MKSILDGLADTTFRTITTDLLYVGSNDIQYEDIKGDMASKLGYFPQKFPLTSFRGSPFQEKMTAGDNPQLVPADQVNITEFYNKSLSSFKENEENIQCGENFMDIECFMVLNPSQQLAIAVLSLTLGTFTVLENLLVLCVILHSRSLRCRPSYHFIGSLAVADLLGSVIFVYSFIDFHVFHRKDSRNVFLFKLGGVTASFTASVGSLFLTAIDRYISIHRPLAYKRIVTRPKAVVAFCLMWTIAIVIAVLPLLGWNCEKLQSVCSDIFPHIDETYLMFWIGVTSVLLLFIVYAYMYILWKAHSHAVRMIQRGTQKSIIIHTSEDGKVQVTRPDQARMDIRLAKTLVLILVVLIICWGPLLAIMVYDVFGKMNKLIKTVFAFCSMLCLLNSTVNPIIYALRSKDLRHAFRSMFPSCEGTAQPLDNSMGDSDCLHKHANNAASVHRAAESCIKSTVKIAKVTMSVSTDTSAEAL
Adenosine receptor A2a (Homo sapiens), sequence (P29274 whole entry): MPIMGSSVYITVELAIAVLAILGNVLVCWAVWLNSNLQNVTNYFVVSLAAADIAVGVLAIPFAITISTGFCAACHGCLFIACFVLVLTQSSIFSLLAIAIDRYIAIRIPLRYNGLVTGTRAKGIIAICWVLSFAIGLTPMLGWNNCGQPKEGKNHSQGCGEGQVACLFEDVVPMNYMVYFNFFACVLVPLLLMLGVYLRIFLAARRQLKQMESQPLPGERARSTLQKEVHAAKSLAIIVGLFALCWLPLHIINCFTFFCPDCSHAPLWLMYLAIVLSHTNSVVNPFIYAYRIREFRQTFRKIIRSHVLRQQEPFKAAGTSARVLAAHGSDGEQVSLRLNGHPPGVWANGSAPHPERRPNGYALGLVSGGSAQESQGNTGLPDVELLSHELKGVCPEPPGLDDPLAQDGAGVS
5-hydroxytryptamine receptor 2B (Homo sapiens), sequence (P41595 whole entry): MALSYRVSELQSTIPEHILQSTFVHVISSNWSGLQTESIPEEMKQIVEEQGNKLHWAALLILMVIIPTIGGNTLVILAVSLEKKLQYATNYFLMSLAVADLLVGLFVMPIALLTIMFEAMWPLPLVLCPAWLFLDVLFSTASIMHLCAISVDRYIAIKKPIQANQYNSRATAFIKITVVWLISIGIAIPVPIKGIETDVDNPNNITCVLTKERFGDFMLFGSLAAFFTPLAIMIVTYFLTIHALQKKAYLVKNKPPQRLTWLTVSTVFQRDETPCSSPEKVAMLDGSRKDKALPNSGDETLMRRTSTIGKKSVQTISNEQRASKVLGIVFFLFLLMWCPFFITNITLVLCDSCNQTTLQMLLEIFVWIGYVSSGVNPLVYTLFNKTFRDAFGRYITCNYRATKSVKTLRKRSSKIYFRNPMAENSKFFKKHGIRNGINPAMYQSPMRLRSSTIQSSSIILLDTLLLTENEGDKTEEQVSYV
3',5'-cyclic-AMP phosphodiesterase 4D (Homo sapiens), sequence (Q08499 whole entry): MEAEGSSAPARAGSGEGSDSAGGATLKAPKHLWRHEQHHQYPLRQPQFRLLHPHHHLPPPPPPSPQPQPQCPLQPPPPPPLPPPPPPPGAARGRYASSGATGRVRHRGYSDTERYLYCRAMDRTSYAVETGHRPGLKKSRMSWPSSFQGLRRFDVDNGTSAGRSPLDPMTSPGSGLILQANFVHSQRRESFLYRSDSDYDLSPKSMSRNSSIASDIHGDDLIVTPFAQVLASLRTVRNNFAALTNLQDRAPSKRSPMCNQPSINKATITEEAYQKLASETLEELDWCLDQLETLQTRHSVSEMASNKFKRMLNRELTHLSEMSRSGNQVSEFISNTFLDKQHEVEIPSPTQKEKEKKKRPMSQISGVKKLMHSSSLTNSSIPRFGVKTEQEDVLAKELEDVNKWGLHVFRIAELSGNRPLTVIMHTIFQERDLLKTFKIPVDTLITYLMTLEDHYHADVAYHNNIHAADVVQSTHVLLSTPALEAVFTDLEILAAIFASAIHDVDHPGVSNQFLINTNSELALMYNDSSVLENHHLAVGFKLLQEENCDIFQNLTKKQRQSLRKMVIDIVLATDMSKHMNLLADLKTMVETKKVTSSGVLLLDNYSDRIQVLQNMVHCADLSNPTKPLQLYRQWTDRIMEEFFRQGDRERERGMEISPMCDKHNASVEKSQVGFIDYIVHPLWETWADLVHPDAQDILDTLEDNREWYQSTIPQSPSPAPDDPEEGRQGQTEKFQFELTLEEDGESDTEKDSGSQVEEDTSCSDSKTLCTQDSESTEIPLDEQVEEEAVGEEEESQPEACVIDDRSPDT
D(2) dopamine receptor (Homo sapiens), sequence (P14416 whole entry): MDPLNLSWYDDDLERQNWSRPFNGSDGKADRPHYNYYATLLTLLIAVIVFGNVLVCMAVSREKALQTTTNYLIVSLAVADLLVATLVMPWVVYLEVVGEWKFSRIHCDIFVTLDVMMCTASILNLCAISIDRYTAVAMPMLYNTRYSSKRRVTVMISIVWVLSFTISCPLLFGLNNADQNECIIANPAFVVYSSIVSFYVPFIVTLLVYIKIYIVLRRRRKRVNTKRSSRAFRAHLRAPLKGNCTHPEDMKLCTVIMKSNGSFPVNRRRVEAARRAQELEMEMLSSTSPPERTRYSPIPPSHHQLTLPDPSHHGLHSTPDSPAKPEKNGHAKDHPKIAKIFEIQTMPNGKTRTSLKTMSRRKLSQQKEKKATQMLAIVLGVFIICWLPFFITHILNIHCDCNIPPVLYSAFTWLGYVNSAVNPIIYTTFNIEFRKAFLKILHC
Muscarinic acetylcholine receptor M3 (Homo sapiens), sequence (P20309 whole entry, looked up): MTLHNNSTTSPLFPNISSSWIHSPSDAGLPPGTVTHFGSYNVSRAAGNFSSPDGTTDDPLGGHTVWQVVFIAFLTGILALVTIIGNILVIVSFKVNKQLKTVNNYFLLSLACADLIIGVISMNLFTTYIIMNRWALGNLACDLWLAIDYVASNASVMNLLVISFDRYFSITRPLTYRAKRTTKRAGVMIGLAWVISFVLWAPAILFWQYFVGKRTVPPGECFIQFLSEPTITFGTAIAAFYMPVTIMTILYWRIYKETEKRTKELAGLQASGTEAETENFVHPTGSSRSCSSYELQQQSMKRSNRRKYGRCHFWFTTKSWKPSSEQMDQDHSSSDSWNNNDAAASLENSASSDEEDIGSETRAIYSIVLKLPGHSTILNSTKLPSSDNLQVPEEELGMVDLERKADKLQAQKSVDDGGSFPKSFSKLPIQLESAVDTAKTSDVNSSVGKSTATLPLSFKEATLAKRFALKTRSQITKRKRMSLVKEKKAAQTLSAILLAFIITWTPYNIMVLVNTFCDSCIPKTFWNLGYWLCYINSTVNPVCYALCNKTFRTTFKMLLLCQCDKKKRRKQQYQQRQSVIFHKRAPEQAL

COc1ccccc1N1CCN(c2nc3c(c(=O)[nH]2)CCCC3)CC1
pIC50 [1]: 7.71

O=c1[nH]c(N2CCC3(CC2)CN(CCO)c2cc(F)cc(F)c23)nc2c1CCCC2
Cmax [2]: 199 µM
Activity [3]: Active
AUC(0-inf) [4]: 555 µM·h
Activity [5]: inactive
inhibition [6]: Active
inhibition [7]: Active
inhibition [8]: > 20%
inhibition [9]: > 20%
inhibition [10]: > 20%
inhibition at 1.5 h, 10 µM [11]: > 20%
inhibition [12]: > 20%
inhibition [13]: > 20%
inhibition [14]: > 20%
inhibition [15]: > 20%
inhibition [16]: > 20%
inhibition [17]: > 20%
inhibition [18]: > 20%
inhibition [19]: > 20%
